From patent US12678451B2, “Cannabinoid and omega fatty acid compositions and methods of using” (GreenWay Herbal Products, LLC, priority 2019, dated 2026)

Columns and labels:
[1] = rats; cited from earlier work
[2] = tested on: cytokine levels in differentiated THP-1 cells treated with LPS; assay: THP-1 human cellular LPS cytokine assay, three independent experiments, total averaged suppression
Method: Cells were seeded onto 24-, or 12-well plates and incubated for 48 hours to 72 hours to allow for differentiation. […] Supernatants were collected for quantification of human cytokine levels to assess the cytokine response. Cells remaining after the supernatant collection were tested to ensure they had at least 90% viability as determined by Alamar Blue assays. To conduct the Alamar Blue assays, supernatants were replaced with culture medium containing 1× Alamar Blue reagent and incubated overnight. Cell viability was assessed by measuring relative fluorescent units (RFU) on the SpectraMax M2e microplate reader (Molecular Devices Inc., Sunnyvale, Calif., USA) at Excitation 560 nm and Emission 590 nm. Controls included untreated cells with DMSO at the same concentration as the treated cells, LPS stimulated cells with DMSO at the same concentration as the treated cells and LPS stimulated cell with the various treatments. The levels of 42 of the most common human cytokines (Eve Technologies, Calgary, Canada Table 6) were determined by multi-plex analysis.
For this reason, the level of cytokine suppression was determined for each cytokine by each cannabinoid that was tested and the total averaged suppression for each cannabinoid was determined by dividing the total suppression by the number of the cytokines that were analyzed.

DPPH antioxidant assay = assay type: biochemical; conditions: 100 μM
Method: The ability of the cannabinoids to act as potential antioxidants was assessed using the 2,2-diphenyl-1-picrylhydrazyl (DPPH) antioxidant assay. The cannabinoids CBDA, CBD, CBDVA, CBDV, CBG, THCV, and the 1:1 CBD:CBDA mixture had the highest antioxidant activities with radical scavenging activities of 38.19%, 48.00%, 43.81%, 44.21%, 44.28%, 45.71%, and 43.74%, respectively.
The 2,2-diphenyl-1-picrylhydrazyl (DPPH) free radical (Alfa Aesar) was prepared at 0.1 mM in ethanol. The cannabinoids were tested at a final concentration of 100 uM. 2 uL of 7.5 mM stock solutions of the cannabinoids to be tested in DMSO were added to 148 uL of 0.1 mM DPPH to achieve a final concentration of 100 μM in the assay. Ascorbic acid (Thermo Scientific) at a final concentration of 10 mg/ml was used as a positive control. The reaction mixture was incubated in the dark at room temperature for 1 hour, the absorbance of the mixture was read at 517 nm using a Spectra Max 5M microplate reader (Molecular Devices, LLC, Sunnyvale, Calif., USA) and the absorbance was converted to percent radical scavenging activity (% RSA) using the following formula: % RSA=[(Absorbance of the control−Absorbance of the sample)/(Absorbance of the control)]×100.
Free radical production occurs when the immune system is activated and antioxidants represent potential effective treatments for inflammatory conditions and autoimmune diseases. […] The DPPH antioxidant assay can be used to measure the ability of a compound to scavenge free radicals by measuring the ability of compounds to hydrogenate and reduce DPPH. The DPPH assay was conducted on CBCA, CBDA, CBDVA, CBGA, CBLA, CBNA, THCVA, and their decarboxylated derivatives as well as the 1:1 CBD:CBDA mixture.

[3] = tested on: cytokines induced in mice by LPS; assay: Mouse LPS cytokine animal model (Example 3), cannabinoids in PB with 5% DMSO; assay type: in vivo; conditions: 5 mg/kg
Method: This experiment was conducted to compare the ability of CBD, CBDA or the 1:1 equimolar mixture of CBD:CBDA to suppress the induction of cytokines whose expression levels were induced in mice by LPS.
The ability of agents to suppress the immune system can be tested in vivo using an LPS mouse model, in which mice are injected with LPS to cause an immune response (Field et al., 1970; Ghezzi P and Sipe J D, 1988).
Four 20 g female C57BL/6 mice were used per group. The experimental mice were first injected with 0.1 mL of the cannabinoids prepared at 1 mg/mL in phosphate buffer (PB) with 5% DMSO to yield a final dose of 5 mg/kg, followed one hour later by the injection of 0.1 mL of 0.02 mg/mL LPS in PB to yield a final dose of 0.1 mg/kg. Mice injected with 0.1 mL of PB with 5% DMSO and 0.1 mL of PBS served as a non-induced control and mice injected with 0.1 mL of PB with 5% DMSO and 0.1 mL of 0.02 mg/mL LPS in PB served as a LPS untreated control. After allowing two hours for the immune system to be induced by LPS, the mice were then euthanized, heart punctures performed to extract the blood, which was allowed to coagulate on ice for 1 hour before centrifuging to isolate the serum. The levels of 32 of the most common mouse cytokines (Eve Technologies, Calgary, Canada, Table 9) were determined by multi-plex analysis.

[4] = tested on: cytokine levels in differentiated THP-1 cells treated with LPS; assay: THP-1 human cellular LPS cytokine assay, four independent experiments, per cytokine; assay type: cell-based; conditions: LPS 20 ng/mL
[5] = tested on: differentiated U-937 cells; assay: Human cellular U-937 autophagy induction assay (anti-LC3); assay type: cell-based
Method: The induction of autophagy was monitored using anti-LC3 antibodies to detect LC3 on the autophagosome in human U-937 pro-monocytic histiocytic lymphoma cells (ATCC, Manassas, Va., USA), which generate morphologies characteristic of macrophages upon induction by various stimuli. U-937 cells were cultured in RPMI-1640 medium with L-glutamine and sodium bicarbonate (Sigma-Aldrich, St Louis, Mo.) supplemented with 10% fetal bovine serum (FBS) and 1% penicillin in 25 cm2 tissue flasks at 37° C. in a 5% CO2 humidified atmosphere and passaged every 2-3 days. U-937 cells were seeded in 96 well plates at 5×10^5 cells/mL and stimulated with 100 ng/mL PMA to induce differentiation for 24 hours. The cells were then treated with the various cannabinoids at 1.0 μM concentrations for 12 hours. 30 μM chloroquine was used as a positive control. After treatment, the cells were fixed using 3.7% formaldehyde in PBS for 15 minutes at room temperature and washed with PBS to remove the fixative. Permeabilization reagent (0.2% Triton X-100 in PBS) (Sigma-Aldrich) was added, the cells were incubated for 15 minutes at room temperature and then the cells were washed with PBS to remove the permeabilization reagent. LC3B rabbit polyclonal antibody (Invitrogen) was added at a final concentration of 0.5 μg/ml for 1 hour at room temperature and the cells were washed with PBS remove the primary antibody. Secondary conjugated goat anti-rabbit polyclonal antibody (Thermo Scientific) was then added at a final concentration of 2.0 μg/ml for 1 hour at room temperature. The cells were washed, Hoechst dye was added to stain the nucleus and the cells were imaged using an Arrayscan VTI high-content screening (HCS) reader (Thermo Scientific) with the appropriate filters and the data was analyzed using the vHCS Scan software.
Chloroquine at a concentration of 30 μM was included as a positive control. The ability to induce autophagy was determined as a percentage with respect to the untreated control.

[6] = tested on: cytokines induced in mice by LPS; assay: Mouse LPS cytokine model, Example 6D, ALA, DHA and EPA omega-3 samples; assay type: in vivo; conditions: mouse, in vivo
Method: A series of experiments using a mouse LPS cytokine animal model were performed. In the mouse LPS cytokine animal model, mice were injected with LPS, which induced the immune response shortly after the mice were injected with one of the potential anti-inflammatory compounds under evaluation (the “test compound”). The efficacy of the test compound was evaluated based on its ability to reduce expression levels of inflammatory cytokines that were elevated due to the immune response. The test compounds included a cannabinoid, an omega fatty acid, and a cannabinoid-omega fatty acid composition.
The mice were intraperitoneally injected with 0.1 mL of the test compound. One hour later, the mice were intraperitoneally injected with 0.1 mL of LPS in phosphate buffered saline (PBS). Four hours later, a heart puncture was performed and the blood was allowed to clot to generate serum. 0.1 mL of the serum was diluted 1:2 with PBS and stored at −80° C. The serum was then sent to a laboratory where a mouse cytokine array/chemokine array 31-plex (MD31) analysis was performed that analyzed the expression levels of the 32 cytokines/chemokines listed in Table 9, above.
For each considered test compound, the ability of the test compound to suppress each inflammatory cytokine was calculated by determining the percent suppression.
36 female C57BL/6 mice that weighed approximately 20 g each were obtained and allowed to acclimate for one week after arrival with unlimited access to food and water. On the day of the study, the mice were weighed and split into eight groups of four mice each so that the average weight of each group was as close as possible to each other.
All of the omega fatty acid samples that were tested were diluted so the dose was 12.5 mg of total omega fatty acids per mouse. […] The omega fatty acids samples tested included: (1) pollock oil, 456 mg/mL omega unsaturated fatty acids. The pollock oil contained a mixture of anti-inflammatory omega-3, omega-7 and omega-9 unsaturated fatty acids. […] (2) Flaxseed oil, 656 mg/mL anti-inflammatory omega unsaturated fatty acids. The flaxseed oil contained a mixture of anti-inflammatory omega-3 and omega-9 unsaturated fatty acids. The omega-3 and omega-9 unsaturated fatty acids constituted 77.6% and […], respectively, of the anti-inflammatory omega fatty acids contained in the flaxseed oil. A 12.5 mg dose contained 9.7 mg of ALA in the triglyceride form. (3) Mono 2:1 DHA:EPA, 744 mg/mL omega-3 unsaturated fatty acids that were primarily DHA or EPA. A 12.5 mg dose contained 7.81 mg of DHA and 3.91 mg of EPA. The omega-3 unsaturated fatty acids were in the free mono form. […] A 12.5 mg dose contained 3.85 mg of DHA and 7.69 mg of EPA. The omega-3 unsaturated fatty acids were in the free mono form. (5) Tri 2:1 DHA:EPA, 678.9 mg/mL omega-3 unsaturated fatty acids that were primarily DHA or EPA. A 12.5 mg dose contained 7.88 mg of DHA and 3.94 mg of EPA. The omega-3 unsaturated fatty acids were in the triglyceride form. (6) Tri 1:2 DHA:EPA, 678.9 mg/mL omega-3 unsaturated fatty acids that were primarily DHA or EPA. A 12.5 mg dose contained 3.60 mg of DHA and 7.19 mg of EPA. The omega-3 unsaturated fatty acids were in the triglyceride form.

## CC(O)CO (centres unmarked) [propylene glycol]
[1]
  LD50: 20,000 mg/kg

## C=C(C)[C@@H]1CCC(C)=C[C@H]1c1c(O)cc(CCCCC)c(C(=O)O)c1O [CBDA, 2,4-Dihydroxy-3-[(1R,6R)-6-isopropenyl-3-methyl-2-cyclohexen-1-yl]-6-pentylbenzoic acid]
[2]
  effectiveness at reducing elevated cytokine levels relative to dexamethasone: at least half as effective as dexamethasone
[2]; Homo sapiens, THP-1, 4 h, read-out: % Cytokine Suppression (total averaged)
  inhibition at 2 µM: 37.2%
DPPH antioxidant assay
  radical scavenging activity compared to the untreated control: at least two-fold
DPPH antioxidant assay; 1 hour
  % RSA (radical scavenging activity): 38.19%
[3]
  Average cytokine suppression: 13.71%
  GM-CSF suppression: 27.86%
  IFNγ suppression: 31.60%
  IL-1β suppression: 11.89%
  IL-2 suppression: 7.82%
  IL-6 suppression: 6.09%
  IL-12β p40 suppression: 58.93%
  IL-13 suppression: 4.16%
  IL-17 suppression: 7.86%
  IP-10 suppression: 4.58%
  KC suppression: 18.15%
  LIF suppression: 28.12%
  M-CSF suppression: −51.56%
  MIP-1α suppression: 14.86%
  MIP-1β suppression: 9.12%
  MIP-2 suppression: 20.19%
  TNF-α suppression: 19.69%
[4]; 2 µM
  EGF suppression: 5.34%
  FGF-β suppression: 30.37%
  Flt-3L suppression: 47.81%
  G-CSF suppression: 77.66%
  GM-CSF suppression: 43.68%
  IFNγ suppression: 60.44%
  IL-1α suppression: 44.04%
  IL-1β suppression: 53.82%
  IL-4 suppression: 10.49%
  IL-6 suppression: 69.39%
  IL-7 suppression: 37.62%
  IL-10 suppression: 23.20%
  IL-12 p70 suppression: 8.24%
  IL-15 suppression: 47.99%
  IL-18 suppression: 37.34%
  IP-10 suppression: 73.87%
  MCP-1 suppression: 54.97%
  MIP-1β suppression: 47.92%
  TNFα suppression: 28.56%
  TNFβ suppression: 45.83%
[4]
  Average cytokine suppression: 42.43%
[5]; 1.0 μM, 12 hours
  Fluorescence (LC3): 37.64
[5]; Homo sapiens, U-937, 12 h, read-out: Induction of autophagy with respect to the untreated control
  activation at 1 µM: -22%

## C[S+](C)[O-] [dimethyl sulfoxide]
[1]
  LD50: 14,500 mg/kg

## CC/C=C\C/C=C\C/C=C\C/C=C\C/C=C\C/C=C\CCC(=O)O [DHA, (4Z,7Z,10Z,13Z,16Z,19Z)-docosa-4,7,10,13,16,19-hexaenoic acid]
[6]
  anti-inflammatory capability among ALA, DHA and EPA: highest anti-inflammatory capability
